According to PMC5122374 (Oncotarget, 2016):

What was measured:
[1] = tested on: MMP-9 expression in NCI-H441 cells; experiment: Gelatin zymography of HGF-induced MMP-9 expression; assay type: cell-based, human; details: NCI-H441, HGF 100 ng/mL, 24 h, dose-dependent
Protocol: NCI-H441 cells were seeded in a six-well plate (5×10^5 per well) and incubated at 37°C. […] The conditioned medium was collected and centrifuged at 12,000 g for 15 min and concentrated by Micro centrifugal filter device (Millipore Corporation). Then the supernatants were collected and separated on 7.5% SDS-PAGE with 2 mg/mL gelatin incorporated into the gel mixture. Following electrophoresis at 4°C, the gels were rinsed briefly with distilled water and washed three times (15 min each) with 150 ml of 2.5% Triton X-100 solution on a rotary shaker. The gels were then incubated at 37°C for 18 h in 250 ml of 50 mmol/L Tris·HCl (pH 7.5) that contained 10 mmol/L CaCl2, 1 μM ZnCl2, 1% Triton X-100, and 0.02% NaN3. After incubation, the gels were stained with 100 ml of 50% methanol, 10% acetic acid, and 0.1% Coomassie blue R-250 for 3 h, then destained with 50% methanol and 10% acetic acid. Finally, the gels were immersed in distilled water for 20 min and quantified by densitometric analysis using Image Lab software (Bio-Rad Laboratories, Inc.).

NCI-H441 cells [2] = experiment: HGF-induced Transwell migration assay; assay type: cell-based, human; details: NCI-H441, HGF 100 ng/mL, 24 h
Protocol: (§1) For the migration assay, NCI-H441 cells suspended in serum-free medium (1.5×10^5 cells per well) were seeded in 24-well Transwell plates (pore size, 8 μm; Corning). […] The cultures were maintained for 24 h, followed by the removal of non-motile cells at the top of the filter using a cotton swab. The migrating cells were fixed in paraformaldehyde (4%) and stained with crystal violet (0.1%) for 15 min at room temperature. The dye that was taken up by the cells bound to the membrane was released by the addition of 100 μL 10% acetic acid, and the absorbance of the resulting solution was measured at 595 nm using a multiwell spectrophotometer (SpetraMAX 190, from Molecular Devices, Palo Alto, CA, USA). The assay was performed in triplicate. Images were obtained using an Olympus BX51 microscope.

MKN-45 cells [3] = experiment: Cell cycle analysis by flow cytometry; assay type: cell-based, human; details: MKN-45, 24 h
Protocol: (§2) After 24 h, cells were collected, fixed and stained with propidium iodide (10 μg/mL) for 30 min, then analyzed using a flow cytometer (FACS Caliber instrument; Becton, Dickinson & Co.). Data were plotted using CellQuest (Becton, Dickinson &Co).

EBC-1 cells [4] = experiment: Cell cycle analysis by flow cytometry; assay type: cell-based, human; details: EBC-1, 24 h
Protocol: as §2

[5] = tested on: c-Met phosphorylation and its downstream signaling; experiment: Immunoblotting of c-Met signaling in HGF-stimulated HUVEC cells; assay type: cell-based, human; details: Simm530 2 h then 100 ng/mL HGF 15 min
Protocol: Cells were cultured under regular growth conditions to exponential growth phase. […] Those cell lysates were subsequently resolved on 10% SDS-PAGE, and transferred to nitrocellulose membranes. Proteins were probed with specific antibody then subsequently with secondary horseradish peroxidase-conjugated antibody. Finally, immunoreactive proteins were detected using an enhanced chemiluminescence detection reagent (Pierce, Thermo Fisher Scientific Inc.).

NCI-H1993 cells = experiment: Cell proliferation assay (SRB or MTT); assay type: cell-based; details: Homo sapiens, NCI-H1993, 72 h; read-out: anti-proliferative IC50
Protocol: (§3) Cells were seeded in 96-well tissue culture plates. On the next day, cells were exposed to various concentrations of compounds and further cultured for 72 h. For Human umbilical vascular endothelial cells (HUVEC) (passage 3) were transferred to basal medium (without growth factor and serum) for 24 h before compounds treated for another 24 h. Finally, cell proliferation was determined using sulforhodamine B (SRB) assay, Thiazolyl Blue Tetrazolium Bromide (MTT; Sigma) assay or Cell Counting Kit (CCK-8) assay. IC50 values were calculated by concentration-response curve fitting using a SoftMax pro-based four-parameter method.

MKN-45 cells [6] = experiment: Cell proliferation assay (SRB or MTT); assay type: cell-based; details: Homo sapiens, MKN-45, 72 h, read-out: anti-proliferative IC50
Protocol: as §3

SNU-5 cells = experiment: Cell proliferation assay (SRB or MTT); assay type: cell-based; details: Homo sapiens, SNU-5, 72 h, read-out: anti-proliferative IC50
Protocol: as §3

EBC-1 cells [7] = experiment: Cell proliferation assay (SRB or MTT); assay type: cell-based; details: Homo sapiens, EBC-1, 72 h; read-out: anti-proliferative IC50
Protocol: as §3

NCI-H441 cells [8] = experiment: HGF-induced Matrigel invasion assay; assay type: cell-based, human; details: NCI-H441, HGF 100 ng/mL, 24 h
Protocol: as §1
For the invasion assay, NCI-H441 cells were cultured in the top chambers containing Matrigel-coated membrane inserts (Matrigel, BD). The ensuing procedure was identical to the migration assay. The assay was performed in triplicate. Images were obtained using an Olympus BX51 microscope.

[9] = tested on: EBC-1 human NSCLC xenograft; experiment: In vivo antitumor activity, EBC-1 xenograft
Protocol: . Animal procedures were performed according to institutional ethical guidelines of animal care. […]. After that, the well-developed tumors were cut into 1 mm^3 fragments and transplanted s.c. into the right flank of nude mice using a trocar. When the tumor volume reached 100-200 mm^3, the mice were randomly assigned into vehicle and treatment groups (n = 6 per group). […] The sizes of the tumors were measured twice per week using microcaliper. The tumor volume (TV) was calculated as: TV = (length×width^2)/2 and the individual relative tumor volume (RTV) was calculated as follows: RTV = Vt/V0, where Vt is the volume on each day, and V0 is the volume at the beginning of the treatment. RTV was shown on indicated days as the median RTV ± SE indicated for groups of mice.
Tumor specimens were fixed in 4% paraformaldehyde for 24 h. Tumor samples were subsequently paraffin-embedded, and sliced onto microscope slides. After dewaxing and blocking endogenous peroxidase activity with 3% H2O2, the sections were incubated with 1.5% normal goat serum, followed by overnight incubation at 4°C with anti-phospho-c-Met antibody (Y1234/1235), anti-CD31 antibody or anti-Ki67 antibody. Then, the sections were incubated with biotin-conjugated anti-rabbit IgG for 2 h at 37°C followed by incubating for 1 h with avidin-biotin-peroxidase complex (ABC) using a Vectastain ABC kit(Vector Laboratories). Staining was detected using the DAB (3, 3′-diaminobenzidine tetrahydrochloride) Liquid System (ZSGB-Bio) and imaged in 5 different fields of each section. Anti-phospho-c-Met and anti-CD31 antibody immunostained sections were counterstained using hematoxylin.

[10] = tested on: SNU-5 human gastric carcinoma xenograft; experiment: In vivo antitumor activity, SNU-5 xenograft; parameters: species or system nude mice
Protocol: Female nude mice (4-6 weeks) were housed five or six mice per cage in a specific pathogen-free room with a 12 h light/dark schedule at 25°C ± 1°C and were fed an autoclaved chow diet and water ad libitum. Animal procedures were performed according to institutional ethical guidelines of animal care. […] After that, the well-developed tumors were cut into 1 mm^3 fragments and transplanted s.c. into the right flank of nude mice using a trocar. […] The sizes of the tumors were measured twice per week using microcaliper. The tumor volume (TV) was calculated as: TV = (length×width^2)/2 and the individual relative tumor volume (RTV) was calculated as follows: RTV = Vt/V0, where Vt is the volume on each day, and V0 is the volume at the beginning of the treatment. RTV was shown on indicated days as the median RTV ± SE indicated for groups of mice. […] Tumor specimens were fixed in 4% paraformaldehyde for 24 h. Tumor samples were subsequently paraffin-embedded, and sliced onto microscope slides. […] Staining was detected using the DAB (3, 3'-diaminobenzidine tetrahydrochloride) Liquid System (ZSGB-Bio) and imaged in 5 different fields of each section. Anti-phospho-c-Met and anti-CD31 antibody immunostained sections were counterstained using hematoxylin. Serum levels of human IL-8 were detected by using Human IL-8 Quantikine ELISA Kit (R&D Systems, Inc.) follows the instructions.

[11] = tested on: uPA activity in MDCK cells; experiment: Urokinase-type plasminogen activator (uPA) assay; assay type: cell-based, canine; details: HGF 100 ng/mL, 24 h, dose-dependent
Protocol: MDCK cells (1.5-2 ×10^3 cells per well) were plated in 96-well plate and grown overnight. […] The plate was processed for determination of plasminogen activity by first rinsing wells twice with DMEM (without phenol red), then adding 200 μL of reaction buffer [10%(v/v) 3 mM chromozym PL (Roche) in 100 mM glycine, 40%(v/v) 50 mM Tris (pH 8.2), 50%(v/v) 0.05 unit/mL plasminogen (Roche) in DMEM (without phenol red), and 0.2% Tween-20] to each well. After incubation at 37°C, 5% CO2 for 6 h, the absorbance of each well was read at 405 nm.

MDCK cells [12] = experiment: HGF-induced cell branching morphogenesis in collagen; assay type: cell-based, canine; details: 5 days
Protocol: MDCK cells at a density of 2×10^4 cells/mL in DMEM medium were mixed with an equal volume of collagen I solution and plated at 0.1 mL/well in a 96-well culture plate. […] The medium was replaced with fresh growth medium every 2 days. Images were obtained using an Olympus IX51 microscope after 5 days.

MDCK cells [13] = experiment: HGF-induced scattering assay; assay type: cell-based, canine; details: 18 to 24 h
Protocol: MDCK cells (1.5×10^3 cells per well) were plated in 96-well plates and grown overnight. […] The cells were fixed with 4% paraformaldehyde for 15 min at room temperature and then stained with 0.2% crystal violet. The assay was performed in triplicate. Images were obtained using an Olympus IX51 microscope.

[14] = Cell proliferation assay, cell panel (SRB or MTT); assay type: cell-based; details: human, panel of cells with low c-Met expression or activation; read-out: cytotoxicity IC50 values
Protocol: as §3

For Cn1cc(-c2cnc3nnc(C(F)(F)c4ccc5ncccc5c4)n3n2)cn1 [Simm530], the “effect on HGF-induced MMP expression” value [1] was “significantly inhibited”, the “dose sufficient to block the movement of most cells (motility)” value (NCI-H441 cells [2]) was 4 nM and the “sub-G1 cell population (apoptosis)” value (MKN-45 cells [3]) was “no obvious sub-G1 cell population”. The “effect on cell cycle distribution” value (MKN-45 cells [3]; dose-dependent, P<0.001) was “G1/S phase arrest”, the “sub-G1 cell population (apoptosis)” value (EBC-1 cells [4]) was “no obvious sub-G1 cell population” and the “effect on cell cycle distribution” value (EBC-1 cells [4]; dose-dependent, P<0.001) was “G1/S phase arrest”. For the same compound, the “effect on c-Met phosphorylation and its downstream signaling” value [5] was “potently inhibited”, the IC50 (NCI-H1993 cells) was 0.8 nM and the IC50 (MKN-45 cells [6]) was 0.7 ± 0.1 nM. The IC50 (SNU-5 cells) was 0.9 ± 0.2 nM, the IC50 (EBC-1 cells [7]) was 0.7 nM and the “dose sufficient to block the movement of most cells (invasion)” value (NCI-H441 cells [8]) was 4 nM. For the same compound, the tumor response ([9]; 12.5 mg/kg oral twice daily) was “Tumor stasis”, the “mice showing no signs of tumor” value ([9]; 100 mg/kg twice daily) was 4 of the 6 and the tumor response ([9]; 50 and 100 mg/kg oral twice daily) was “tumor regression”. The “intratumoral phosphorylation of c-Met” value ([9]; 2 hours after the final dosage, immunoblotting) was “marked and dose-dependent inhibition”, the “CD31-positive endothelial cells (microvessel density)” value ([9]; IHC, 2 h after final administration) was “significant reduction” and the “tolerance (body weight)” value ([9]; all tested dosages, data not shown) was “lack of significant weight loss”. The tumor response ([10]; 12.5 mg/kg and 25 mg/kg oral twice daily) was “tumor stasis and regression”, the “intratumoral phosphorylation of c-Met” value ([10]; 2 hours after the final dosage, immunoblotting and IHC) was “marked and dose-dependent inhibition” and the IL-8 plasma level ([10]; human IL-8 ELISA, day 21, P<0.001) was “significant reduction”. The “effect on HGF-induced urokinase activity” value [11] was “significantly inhibited”, the “effect on HGF-induced branching morphogenesis” value (MDCK cells [12]) was “strongly inhibited” and the “effect on HGF-induced cell scattering” value (MDCK cells [13]) was “strongly inhibited”. The IC50 at 72 h [14] was greater than 50000 nM.
